Reference: patent publication US11053196B2, “Substituted indoline derivatives as dengue viral replication inhibitors” (JANSSEN PHARMACEUTICALS, INC., priority 2017, dated 2021)
pEC50: −log10 of the molar value.

Assays:
[1] = system: DENV-2 16681 strain; assay: DENV-2 antiviral assay (eGFP-labeled virus in Vero cells); type: cell-based, Dengue virus; details: DENV-2 16681 eGFP, MOI 0.5, 3 days
Experimental: The antiviral activity of all the compounds of the invention was tested against the DENV-2 16681 strain which was labeled with enhanced green fluorescent protein (eGPF). The culture medium consists of minimal essential medium supplemented with 2% of heat-inactivated fetal calf serum, 0.04% gentamycin (50 mg/mL) and 2 mM of L-glutamine. Vero cells, obtained from ECACC, were suspended in culture medium and 25 μL was added to 384-well plates (2500 cells/well), which already contain the antiviral compounds. Typically, these plates contain a 5-fold serial dilution of 9 dilution steps of the test compound at 200 times the final concentration in 100% DMSO (200 nL). […] Finally, each plate contains wells which are assigned as virus controls (containing cells and virus in the absence of compound), cell controls (containing cells in the absence of virus and compound) and medium controls (containing medium in the absence of cells, virus and compounds). To the wells assigned as medium control, 25 μL of culture medium was added instead of Vero cells. Once the cells are added to the plates, the plates were incubated for 30 minutes at room temperature to allow the cells to distribute evenly within the wells. Next, the plates were incubated in a fully humidified incubator (37° C., 5% CO2) until the next day. Then, DENV-2 strain 16681, labeled with eGFP, was added at a multiplicity of infection (MOI) of 0.5.
Therefore, 15 μL of virus suspension was added to all the wells containing test compound and to the wells assigned as virus control. In parallel, 15 μL of culture medium was added to the medium and cell controls. Next, the plates were incubated for 3 days in a fully humidified incubator (37° C., 5% CO2). At the day of the read out, the eGFP fluorescence was measured using an automated fluorescence microscope at 488 nm (blue laser). Using an in-house LIMS system, inhibition dose response curves for each compound were calculated and the half maximal effective concentration (EC50) was determined. Therefore, the percent inhibition (I) for every test concentration is calculated using the following formula: I=100*(ST−SCC)/(SVC−SCC); ST, SCC and SVC are the amount of eGFP signal in the test compound, cell control and virus control wells, respectively. The EC50 represents the concentration of a compound at which the virus replication is inhibited with 50%, as measured by a 50% reduction of the eGFP fluorescent intensity compared to the virus control. The EC50 is calculated using linear interpolation (Table 1).

[2] = in vitro; details: African green monkey
[3] = Dengue virus, DENV2, Vero, 72 h

COc1cc(NC(C(=O)N2CCc3ccc(SC(F)(F)F)cc32)c2ccc(Cl)cc2)cc(OCCCC(=O)O)c1 (racemic) [Compound 11, 4-(3-((1-(4-chlorophenyl)-2-oxo-2-(6-((trifluoromethyl)thio)indolin-1-yl)ethyl)amino)-5-methoxyphenoxy)butanoic acid] gave a pEC50 [1, 3] of 9.55 and a CC50 [2] of 13 µM.

COc1cc(NC(C(=O)N2CCc3nc(OC)c(C(F)(F)F)cc32)c2ccc(Cl)cc2)cc(OCCCC(=O)O)c1 (racemic) [Compound 9, 4-(3-((1-(4-chlorophenyl)-2-(5-methoxy-6-(trifluoromethyl)-2,3-dihydro-1H-pyrrolo[3,2-b]pyridin-1-yl)-2-oxoethyl)amino)-5-methoxyphenoxy)butanoic acid] showed a pEC50 [1, 3] of 9.00 and a CC50 [2] of 12 µM.

With COc1cc(NC(C(=O)N2CCc3cc(F)c(C(F)(F)F)cc32)c2ccc(Cl)cc2)cc(OCCCC(=O)O)c1 (racemic) [Compound 3, 4-(3-((1-(4-chlorophenyl)-2-(5-fluoro-6-(trifluoromethyl)indolin-1-yl)-2-oxoethyl)amino)-5-methoxyphenoxy)butanoic acid] the pEC50 [1, 3] was 9.25 and the CC50 [2] was 13 µM.

In the case of COc1cc(NC(C(=O)N2CCc3cc(F)c(OC(F)(F)F)cc32)c2ccc(Cl)cc2)cc(OCCCC(=O)O)c1 (racemic) [Compound 5, 4-(3-((1-(4-chlorophenyl)-2-(5-fluoro-6-(trifluoromethoxy)indolin-1-yl)-2-oxoethyl)amino)-5-methoxyphenoxy)butanoic acid], the pEC50 [1, 3] was 9.96 and the CC50 [2] was 10 µM.

In the case of COc1cc(NC(C(=O)N2CCc3ccc(OC(F)(F)F)cc32)c2ccc(F)cc2OC)cc(OCCCC(=O)O)c1 (single isomer, unassigned) [Compound 6A, 4-(3-((1-(4-fluoro-2-methoxyphenyl)-2-oxo-2-(6-(trifluoromethoxy)indolin-1-yl)ethyl)amino)-5-methoxyphenoxy)butanoic acid], the pEC50 [1] was 6.60 and the CC50 [2] was 11 µM.

For COc1cc(NC(C(=O)N2CCc3sc(C(F)(F)F)cc32)c2ccc(Cl)cc2)cc(OCCCC(=O)O)c1 (racemic) [Compound 10, 4-(3-((1-(4-chlorophenyl)-2-oxo-2-(2-(trifluoromethyl)-5,6-dihydro-4H-thieno[3,2-b]pyrrol-4-yl)ethyl)amino)-5-methoxyphenoxy)butanoic acid], the pEC50 [1, 3] was 9.28 and the CC50 [2] was 19 µM.

COc1cc(NC(C(=O)N2CCc3ccc(S(F)(F)(F)(F)F)cc32)c2ccc(Cl)cc2)cc(OCCCC(=O)O)c1 (single isomer, unassigned) [Compound 1A, 4-(3-((1-(4-chlorophenyl)-2-oxo-2-(6-(pentafluoro-λ^6-sulfanyl)indolin-1-yl)ethyl)amino)-5-methoxyphenoxy)butanoic acid] gave a pEC50 [1] of 8.89 and a CC50 [2] of 12 µM.

COc1cc(NC(C(=O)N2CCc3ccc(S(F)(F)(F)(F)F)cc32)c2ccc(Cl)cc2)cc(OCCCC(=O)O)c1 (racemic) [Compound 1, 4-(3-((1-(4-chlorophenyl)-2-oxo-2-(6-(pentafluoro-λ^6-sulfanyl)indolin-1-yl)ethyl)amino)-5-methoxyphenoxy)butanoic acid] showed a pEC50 [1, 3] of 9.19 and a CC50 [2] of 13 µM.

For COc1cc(NC(C(=O)N2CCc3cc(F)c(OC(F)(F)F)cc32)c2ccc(Cl)cc2)cc(OCCCC(=O)O)c1 (single isomer, unassigned) [Compound 5A, 4-(3-((1-(4-chlorophenyl)-2-(5-fluoro-6-(trifluoromethoxy)indolin-1-yl)-2-oxoethyl)amino)-5-methoxyphenoxy)butanoic acid], the pEC50 [1] was 8.64 and the CC50 [2] was 10 µM.

For COc1cc(NC(C(=O)N2CCc3c(C)cc(C(F)(F)F)cc32)c2ccc(Cl)cc2)cc(OCCCC(=O)O)c1 (single isomer, unassigned) [Compound 2A, 4-(3-((1-(4-chlorophenyl)-2-(4-methyl-6-(trifluoromethyl)indolin-1-yl)-2-oxoethyl)amino)-5-methoxyphenoxy)butanoic acid], the pEC50 [1] was 7.82 and the CC50 [2] was 12 µM.

Work on COc1cc(NC(C(=O)N2CCc3c(C)cc(C(F)(F)F)cc32)c2ccc(Cl)cc2)cc(OCCCC(=O)O)c1 (racemic) [Compound 2, 4-(3-((1-(4-chlorophenyl)-2-(4-methyl-6-(trifluoromethyl)indolin-1-yl)-2-oxoethyl)amino)-5-methoxyphenoxy)butanoic acid] yielded a pEC50 [1, 3] of 9.42 and a CC50 [2] of 12 µM.

For COc1cc(NC(C(=O)N2CCc3c(C)cc(OC(F)(F)F)cc32)c2ccc(Cl)cc2)cc(OCCCC(=O)O)c1 (racemic) [Compound 4, 4-(3-((1-(4-chlorophenyl)-2-(4-methyl-6-(trifluoromethoxy)indolin-1-yl)-2-oxoethyl)amino)-5-methoxyphenoxy)butanoic acid], the pEC50 [1, 3] was 9.96 and the CC50 [2] was 12 µM.

With COc1cc(NC(C(=O)N2CCc3ccc(OC(F)(F)F)cc32)c2ccc(F)cc2OC)cc(OCCCC(=O)O)c1 (racemic) [Compound 6, 4-(3-((1-(4-fluoro-2-methoxyphenyl)-2-oxo-2-(6-(trifluoromethoxy)indolin-1-yl)ethyl)amino)-5-methoxyphenoxy)butanoic acid] the pEC50 [1, 3] was 9.20 and the CC50 [2] was 12 µM.

Compound COc1cc(NC(C(=O)N2CCc3ccc(OC(F)(F)F)cc32)c2ccc(Cl)cc2OCCO)cc(OCCCC(=O)O)c1 (racemic) [Compound 8, 4-(3-((1-(4-chloro-2-(2-hydroxyethoxy)phenyl)-2-oxo-2-(6-(trifluoromethoxy)indolin-1-yl)ethyl)amino)-5-methoxyphenoxy)butanoic acid] has a pEC50 [1, 3] of 9.82 and a CC50 [2] of 13 µM.
